Assays:
Plasmodium falciparum [1] = assay: NOVARTIS: Inhibition of Plasmodium falciparum W2 (drug-resistant) proliferation in erythrocyte-based infection assay; format: functional, organism-based; details: Plasmodium falciparum, W2; read-out: EC50
Plasmodium falciparum [2] = assay: NOVARTIS: Inhibition of Plasmodium falciparum 3D7 (drug-susceptible) proliferation in erythrocyte-based infection assay; format: functional, organism-based; details: Plasmodium falciparum, 3D7
[3] = NOVARTIS: Cytotoxicity against human hepatocellular carcinoma cell line (Huh7); format: toxicity, cell-based, Huh-7; details: Huh7 cells (hepatocellular carcinoma cell line)

## O=C(C[n+]1ccccc1)NN=Cc1ccc(Cl)c(Cl)c1
Plasmodium falciparum [1]
  EC50: 3380 nM
Plasmodium falciparum [2]
  EC50: 2840 nM
[3]
  CC50: > 100000 nM

## Oc1cccc2ccc(Nc3ccccn3)nc12
Plasmodium falciparum [1]
  EC50: 302 nM
Plasmodium falciparum [2]
  EC50: 679 nM
[3]
  CC50: 8870 nM

## COc1cccc2c1C(=O)C1C(O)=C3C(=C(O)C1C2=O)CC(O)(C(C)=NN=C1CC(C)(C)N(O)C(C)(C)C1)CC3OC1CC(C)(N)C(O)CO1 (stereo not given)
Plasmodium falciparum [1]
  EC50: 337 nM
Plasmodium falciparum [2]
  EC50: 416 nM
[3]
  CC50: > 10000 nM

## CCOC(=O)c1c(NC(C)=O)sc2c1CCN(C(C)C)C2
Plasmodium falciparum [1]
  EC50: 3410 nM
Plasmodium falciparum [2]
  EC50: 1560 nM
[3]
  CC50: > 100000 nM

## CCCCCCn1c2c(c(=N)c3c1CCC3)CCCC2
Plasmodium falciparum [1]
  EC50: 336 nM
Plasmodium falciparum [2]
  EC50: 364 nM
[3]
  CC50: > 10000 nM

## NS(=O)(=O)c1ccc(CCNC(=O)C=Cc2ccc3c(c2)OCO3)cc1
Plasmodium falciparum [1]
  EC50: 3390 nM
Plasmodium falciparum [2]
  EC50: > 7760 nM
[3]
  CC50: > 100000 nM

## CC(=O)N1c2ccccc2C(C)(c2ccc(Br)cc2)CC1(C)C (stereo not given)
Plasmodium falciparum [1]
  EC50: 2420 nM
Plasmodium falciparum [2]
  EC50: 4270 nM
[3]
  CC50: 71400 nM

## CC(C)C1=Nc2cc(C(N)=O)ccc2CN1C1CC1
Plasmodium falciparum [1]
  EC50: > 338 nM
Plasmodium falciparum [2]
  EC50: 30.8 nM
[3]
  CC50: > 10000 nM

## O=C(NCCCCNc1ccnc2cc(Cl)ccc12)c1ccc(Br)cc1
Plasmodium falciparum [1]
  EC50: 291 nM
Plasmodium falciparum [2]
  EC50: 218 nM
[3]
  CC50: > 8730 nM

## COc1ccc(OC)c(-c2ccc(C(=O)N3CCN(C/C=C/c4ccccc4)CC3)c(N(C)C)n2)c1
Plasmodium falciparum [1]
  EC50: 333 nM
Plasmodium falciparum [2]
  EC50: 922 nM
[3]
  CC50: > 10000 nM

## COc1ccccc1N1CCN(C2CCN(C3CCC(c4ccccc4)CC3)CC2)CC1 (stereo not given)
Plasmodium falciparum [1]
  EC50: 670 nM
Plasmodium falciparum [2]
  EC50: 293 nM
[3]
  CC50: 20200 nM

## CC(C)NC(=O)[C@@H]1C[C@@H](NCc2cccnc2)CN1Cc1ccc2ccccc2c1
Plasmodium falciparum [1]
  EC50: 3310 nM
Plasmodium falciparum [2]
  EC50: > 10900 nM
[3]
  CC50: > 100000 nM

## O=C(Nc1ccc(Cl)c(Cl)c1)Nc1cc(C(=O)NCCCN2CCCCCC2)ccc1Cl
Plasmodium falciparum [1]
  EC50: 1420 nM
Plasmodium falciparum [2]
  EC50: 791 nM
[3]
  CC50: > 43000 nM

## C=C1C=CN(Cc2ccccc2)c2ccc(OC)cc21
Plasmodium falciparum [1]
  EC50: 330 nM
Plasmodium falciparum [2]
  EC50: 451 nM
[3]
  CC50: > 10000 nM

## Cc1ccc(-n2c(SCc3cccc4ccccc34)nc3sc4c(c3c2=O)CCN(C)C4)cc1
Plasmodium falciparum [1]
  EC50: 3300 nM
Plasmodium falciparum [2]
  EC50: > 6520 nM
[3]
  CC50: > 100000 nM

## CC(C)(C)c1ccc(C(=O)Nc2ccc(NC(=O)c3ccc(-c4ccc([N+](=O)[O-])cc4)o3)cc2)cc1
Plasmodium falciparum [1]
  EC50: 3300 nM
Plasmodium falciparum [2]
  EC50: 1210 nM
[3]
  CC50: > 100000 nM

## CCCCC(=O)N(CCCC(C)Nc1cc(OC)cc2cccnc12)Cc1ccccc1OC (stereo not given)
Plasmodium falciparum [1]
  EC50: 35 nM
Plasmodium falciparum [2]
  EC50: 348 nM
[3]
  CC50: 1060 nM

## CCOC(=O)c1c(NC(=O)c2ccc(S(=O)(=O)N(C)c3ccccc3)cc2)sc2c1CCN(C(=O)OCC)C2
Plasmodium falciparum [1]
  EC50: > 3290 nM
Plasmodium falciparum [2]
  EC50: > 10600 nM
[3]
  CC50: > 100000 nM

## CCN(CC)c1ccc(NCc2ccc3c(c2)OCO3)cc1
Plasmodium falciparum [1]
  EC50: 805 nM
Plasmodium falciparum [2]
  EC50: 603 nM
[3]
  CC50: 24600 nM

## c1cc2cc(CN3CCc4nc(N5CCCCC5)sc4C3)ccc2[nH]1
Plasmodium falciparum [1]
  EC50: 326 nM
Plasmodium falciparum [2]
  EC50: 410 nM
[3]
  CC50: > 10000 nM

## Cc1ccccc1NC(=S)NC(Cc1ccccc1)c1ccccc1 (stereo not given)
Plasmodium falciparum [1]
  EC50: 340 nM
Plasmodium falciparum [2]
  EC50: 374 nM
[3]
  CC50: > 10000 nM

## Cc1ccccc1Nc1nc(NCc2ccco2)c2ccccc2n1
Plasmodium falciparum [1]
  EC50: 529 nM
Plasmodium falciparum [2]
  EC50: 548 nM
[3]
  CC50: 15600 nM

## Clc1cccc(CSc2nc(Nc3ccc4c(c3)OCO4)c3ccccc3n2)c1
Plasmodium falciparum [1]
  EC50: 2790 nM
Plasmodium falciparum [2]
  EC50: 1170 nM
[3]
  CC50: > 82900 nM

## COc1ccc(C(C)=NNc2nnc(C)c(O)n2)cc1
Plasmodium falciparum [1]
  EC50: 258 nM
Plasmodium falciparum [2]
  EC50: 188 nM
[3]
  CC50: 7680 nM

## O=C(Cc1ccccc1)NCCCCNc1ccnc2cc(Cl)ccc12
Plasmodium falciparum [1]
  EC50: 316 nM
Plasmodium falciparum [2]
  EC50: 330 nM
[3]
  CC50: > 9600 nM

## CCCCC(CC)C(=O)N(CCCC(C)Nc1cc(OC)cc2cccnc12)Cc1ccc(OC)c(OC)c1 (stereo not given)
Plasmodium falciparum [1]
  EC50: 328 nM
Plasmodium falciparum [2]
  EC50: 442 nM
[3]
  CC50: > 10000 nM

## COCCN(C(C)C(=O)NC(CN1CCCC1)c1ccccc1)S(=O)(=O)c1c(C)noc1C (stereo not given)
Plasmodium falciparum [1]
  EC50: 406 nM
Plasmodium falciparum [2]
  EC50: 964 nM
[3]
  CC50: > 11900 nM

## COc1ccc(NC(=O)C2=C(C)NC(=S)NC2c2ccc(O)cc2)cc1 (stereo not given)
Plasmodium falciparum [1]
  EC50: 342 nM
Plasmodium falciparum [2]
  EC50: 1420 nM
[3]
  CC50: > 10000 nM

## Cc1cccc(NC(=O)c2ccc(NCCCC3CCCCCC3)c([N+](=O)[O-])c2)c1
Plasmodium falciparum [1]
  EC50: 643 nM
Plasmodium falciparum [2]
  EC50: 441 nM
[3]
  CC50: 18800 nM

## COc1ccc2[nH]c3c(NCCN4CCCCC4)ncnc3c2c1
Plasmodium falciparum [1]
  EC50: 976 nM
Plasmodium falciparum [2]
  EC50: 785 nM
[3]
  CC50: 28600 nM

## N#Cc1cc(N2CC3CC(C2)c2cccc(=O)n2C3)c([N+](=O)[O-])cc1C#N (stereo not given)
Plasmodium falciparum [1]
  EC50: 3360 nM
Plasmodium falciparum [2]
  EC50: > 12500 nM
[3]
  CC50: > 100000 nM

## CCCCCCCn1c2c(c(=N)c3c1CCC3)CCCC2
Plasmodium falciparum [1]
  EC50: 91.4 nM
Plasmodium falciparum [2]
  EC50: 69.3 nM
[3]
  CC50: 2720 nM

## Cc1nc(-c2nc3c(s2)CN(C(=O)CCc2cccnc2)CC3)cs1
Plasmodium falciparum [1]
  EC50: 335 nM
Plasmodium falciparum [2]
  EC50: 1090 nM
[3]
  CC50: > 10000 nM

## COC(=O)c1ccc(C=NNc2cc(C)nc3ccc(OC)cc23)cc1
Plasmodium falciparum [1]
  EC50: 537 nM
Plasmodium falciparum [2]
  EC50: 204 nM
[3]
  CC50: 16500 nM

## CCCCc1ccc(Nc2ncnc3sc4c(c23)CCCC4)cc1
Plasmodium falciparum [1]
  EC50: 3390 nM
Plasmodium falciparum [2]
  EC50: 11400 nM
[3]
  CC50: > 100000 nM

## COc1ccc(Nc2nc(N3CCCC3)c3ccccc3n2)cc1
Plasmodium falciparum [1]
  EC50: 334 nM
Plasmodium falciparum [2]
  EC50: 284 nM
[3]
  CC50: 10200 nM

## Cc1ccc(NC(=O)CSc2nc3cc(C(=O)NCCCOC(C)C)ccc3c(=O)n2Cc2ccco2)cc1Cl
Plasmodium falciparum [1]
  EC50: 340 nM
Plasmodium falciparum [2]
  EC50: 1940 nM
[3]
  CC50: > 10000 nM

## CCN1CC=C(c2c[nH]c3ccccc23)CC1
Plasmodium falciparum [1]
  EC50: 339 nM
Plasmodium falciparum [2]
  EC50: 885 nM
[3]
  CC50: > 10000 nM

## CSC1=C(C#N)C(c2ccc(O)cc2)CC(=O)N1 (stereo not given)
Plasmodium falciparum [1]
  EC50: 3280 nM
Plasmodium falciparum [2]
  EC50: > 9510 nM
[3]
  CC50: > 100000 nM

## CCC1CCCCN1C(=O)c1cc(-c2ccccc2OC)on1 (stereo not given)
Plasmodium falciparum [1]
  EC50: 340 nM
Plasmodium falciparum [2]
  EC50: > 598 nM
[3]
  CC50: > 10000 nM

## CC(=NNC(=S)N(C)C)c1ccccn1
Plasmodium falciparum [1]
  EC50: 338 nM
Plasmodium falciparum [2]
  EC50: 311 nM
[3]
  CC50: > 10000 nM

## COc1ccc(-c2ncc([C@@H]3C[C@H]4CN(c5ccccc5)C(=O)[C@]45CCCN35)cn2)cc1
Plasmodium falciparum [1]
  EC50: 995 nM
Plasmodium falciparum [2]
  EC50: 2260 nM
[3]
  CC50: 29800 nM

## Cc1cccn2c(=O)c3cc(C(=O)NC4CCCC4)c(=N)n(CCc4ccccc4)c3nc12
Plasmodium falciparum [1]
  EC50: 3290 nM
Plasmodium falciparum [2]
  EC50: 2200 nM
[3]
  CC50: > 100000 nM

## COc1ccc(NC(=O)c2cc3cc(C4(O)CCN(CC5CC=CCC5)CC4)ccc3o2)cc1 (stereo not given)
Plasmodium falciparum [1]
  EC50: 824 nM
Plasmodium falciparum [2]
  EC50: 381 nM
[3]
  CC50: 25100 nM

## O=C(OC(C(=O)NCc1ccco1)c1ccc(F)cc1)c1ccco1 (stereo not given)
Plasmodium falciparum [1]
  EC50: > 327 nM
Plasmodium falciparum [2]
  EC50: > 1250 nM
[3]
  CC50: > 10000 nM

## O=C(NNc1cccc(F)n1)C(F)(F)F
Plasmodium falciparum [1]
  EC50: 340 nM
Plasmodium falciparum [2]
  EC50: 670 nM
[3]
  CC50: > 10000 nM

## CC(=C(Cl)Cl)C(Br)=C(Br)CO
Plasmodium falciparum [1]
  EC50: 1690 nM
Plasmodium falciparum [2]
  EC50: 119 nM
[3]
  CC50: 50900 nM

## Cn1c(NN=Cc2ccccc2)cc(=O)n(C)c1=O
Plasmodium falciparum [1]
  EC50: 325 nM
Plasmodium falciparum [2]
  EC50: > 1250 nM
[3]
  CC50: > 10000 nM

## CCN1C(C(=O)c2ccccc2)=C(Nc2c(C)n(C)n(-c3ccccc3)c2=O)c2ccccc2S1(=O)=O
Plasmodium falciparum [1]
  EC50: 3310 nM
Plasmodium falciparum [2]
  EC50: > 12500 nM
[3]
  CC50: > 100000 nM

## O=C(Nc1ccc(F)cc1)N1CCN(c2ccc3nnc(-c4ccccc4)n3n2)CC1
Plasmodium falciparum [1]
  EC50: 3290 nM
Plasmodium falciparum [2]
  EC50: > 12500 nM
[3]
  CC50: > 100000 nM

## COc1ccc(C2=C(c3ccc(OC)cc3)C3(c4ccccc4)C(=O)C2(c2ccccc2)C2C(=O)N(c4ccc(F)cc4)C(=O)C23)cc1 (stereo not given)
Plasmodium falciparum [1]
  EC50: 3350 nM
Plasmodium falciparum [2]
  EC50: 2240 nM
[3]
  CC50: > 100000 nM

## CCOC(=O)c1c(CNc2ccncc2)n(C)c2cc(Br)c(O)cc12
Plasmodium falciparum [1]
  EC50: 333 nM
Plasmodium falciparum [2]
  EC50: 315 nM
[3]
  CC50: > 10000 nM

## O=C1N=C(N2CCOCC2)S/C1=C/c1cccc2ccccc12
Plasmodium falciparum [1]
  EC50: 329 nM
Plasmodium falciparum [2]
  EC50: > 1250 nM
[3]
  CC50: > 10000 nM

## Cc1ccc(NC(=O)N2CCN(C(=O)c3nc(-c4ccccc4)nc(C)c3C(=O)OC(C)C)CC2C)c(C)c1 (stereo not given)
Plasmodium falciparum [1]
  EC50: 336 nM
Plasmodium falciparum [2]
  EC50: > 271 nM
[3]
  CC50: > 10000 nM

## Cc1cccc2cc(CNC34CC5CC(CC(C5)C3)C4)c(N3CCC(N4CCC(O)CC4)CC3)nc12
Plasmodium falciparum [1]
  EC50: 163 nM
Plasmodium falciparum [2]
  EC50: 793 nM
[3]
  CC50: 4900 nM

— ChEMBL document CHEMBL1156829 (Proc Natl Acad Sci U S A, 2008)
